The test system of data set [1] is leucine transporter (LeuT). Briefly: Structural stability of LeuT, [3H]-Leu binding by scintillation proximity assay (SPA). To be noted: CMC+0.04% or CMC+0.2% by weight; room temperature; 12 days incubation. The format is biochemical, Aquifex aeolicus. The method, then:
An experiment for measuring structural stability of a LeuT protein by BTMs in an aqueous solution was performed. Each amphiphilic compound was used at a concentration of (a) CMC+0.04% by weight or (b) CMC+0.2% by weight, and the ligand-binding characteristics of LeuT were determined through a scintillation proximity assay (SPA) using [^3H]-Leu. The measurement was performed at room temperature at regular intervals during an incubation period of 12 days.
Specifically, thermophilic bacteria (Aquifex aeolicus)-derived wild-type leucine transporter (LeuT) were purified using the method as described above (G. Deckert, et al., Nature 1998, 392, 353-358). LeuT was expressed in E. coli C41 (DE3) transformed with pET16b encoding a C-terminal 8×His-tagged transporter (an expression plasmid was provided from Dr. E. Gouaux, Vollum Institute, Portland, Oreg., USA). […] Protein samples were stored at room temperature for 12 days, and centrifuged for a given time, and the characteristics of the proteins were determined by measuring a [^3H]-leucine binding ability using SPA. […] The entire [^3H]-leucine binding affinity to each sample was measured using a MicroBeta liquid scintillation counter (PerkinElmer).

Data set [2] in a line: Critical micelle concentration (CMC) using diphenylhexatriene (DPH) fluorescent stain. To be noted: aqueous solution. The format is physicochemical. The method, then:
A method of measuring the CMC is not particularly limited, but the CMC may be measured using methods well known in the related art. For example, the CMC may be measured by a fluorescence staining method using diphenylhexatriene (DPH).
Specifically, the critical micelle concentration (CMC) was measured using diphenylhexatriene (DPH) as a fluorescent stain, and the hydrodynamic radii (Rh) of the micelles formed by each preparation (1.0% by weight) were measured through a dynamic light scattering (DLS) experiment.

For data set [3], the target named is T1, human β2 adrenergic receptor (β2AR) (Homo sapiens, UniProt P07550).
T1 construct: made in house
Briefly: Structural stability of β2AR, [3H]-dihydroalprenolol ([3H]-DHA) binding. The format is biochemical. To be noted: BTMs without CHS, DDM with CHS. On the procedure:
An experiment for determining the structural stability of a human β2 adrenergic receptor (β2AR) and a G-protein-coupled receptor (GPCR) by BTMs was performed. That is, a receptor purified with DDM was diluted with a buffer solution containing only each of the BTMs without cholesteryl hemisuccinate (CHS) or a buffer solution containing DDM with CHS. The final compound concentration was CMC+0.2% by weight, and the ligand-binding characteristics of the receptor were determined through [^3H]-dihydroalprenolol ([^3H]-DHA) binding.
Specifically, a radioactive ligand binding test was performed using the following method. β2AR was purified with 0.1% DDM (D. M. Rosenbaum et al., Science, 2007, 318, 1266-1273.), and finally concentrated to approximately 10 mg/mL (approximately 200 μM). A master binding mixture containing 10 nM [^3H]-dihydroalprenolol (DHA) supplemented with 0.5 mg/mL BSA in each 0.2% amphiphilic compound (DDM or BTMs) was prepared using the β2AR purified with DDM. The ligand-binding characteristics of the receptor purified with the amphiphilic compound at 0.2 pmol was monitored at regular intervals while the receptor was incubated at room temperature for 3 days. The ligand-binding characteristics of the receptor were determined using a water-soluble radioactive ligand binding assay as will be described below. The receptor purified with DDM or each of the BTMs was incubated with 10 nM [^3H]-DHA at room temperature for 30 minutes. The mixture was loaded on a G-50 column, and flow-through fractions were collected using 1 mL of a binding buffer (20 mM HEPES (pH 7.5) supplemented with 0.5 mg/mL BSA and 20×CMC of each amphiphilic compound, 100 mM NaCl). Then, the G-50 column was filled with 15 mL of a scintillation fluid. Receptor-bound [^3H]-DHA was counted using a scintillation counter (Beckman). Non-specific binding of [^3H]-DHA was determined by adding 2 μM of alprenolol (Sigma) in the same binding reaction. The binding affinity of [^3H]-DHA was plotted on a column graph, and each experiment was performed in triplicate.

Here are results for one compound from patent US11198704B2, “Butane-tetraol-based amphiphiles and uses thereof” (Industry-University Cooperation Foundation Hanyang …, priority 2016, dated 2021).

T1 sequence (P07550 whole entry): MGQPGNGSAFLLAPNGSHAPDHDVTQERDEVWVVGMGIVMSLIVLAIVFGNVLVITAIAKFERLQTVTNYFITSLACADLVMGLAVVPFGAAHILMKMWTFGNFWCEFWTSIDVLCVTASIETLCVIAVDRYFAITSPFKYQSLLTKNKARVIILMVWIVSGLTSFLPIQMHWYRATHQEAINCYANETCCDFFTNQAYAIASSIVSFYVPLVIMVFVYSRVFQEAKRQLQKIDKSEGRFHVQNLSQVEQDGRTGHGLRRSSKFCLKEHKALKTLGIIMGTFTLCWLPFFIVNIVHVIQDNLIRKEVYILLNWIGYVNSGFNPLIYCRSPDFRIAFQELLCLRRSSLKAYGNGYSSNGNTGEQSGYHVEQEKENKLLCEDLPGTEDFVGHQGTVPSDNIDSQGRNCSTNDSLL

As to `CCCCCCCCCCCCO[C@@H]1O[C@H](CO)[C@@H](O[C@H]2O[C@H](CO)[C@@H](O)[C@H](O)[C@H]2O)[C@H](O)[C@H]1O` [DDM, n-dodecyl-β-D-maltopyranoside, reference compound], the “maintenance of ligand-binding characteristics of LeuT” value in data set [1] is on record as “continuous structural collapse of the solubilized transporter”. In data set [2], the “CMC” value is listed as about 0.17 mM and the “CMC (% by weight)” value was about 0.0087 % by weight. For the same compound, the “initial ligand-binding characteristics of β2AR ([3H]-DHA)” value in data set [3] (CMC+0.2% by weight) is “high ability to bind to a ligand”. The “remaining ligand-binding ability of β2AR, % of initial” value in data set [3] (after 3 days of incubation at room temperature) was found to be 10%.
